Values of other authors as cited in paper PMC12465416 (BMC Infectious Diseases, 2025).
Where a name gives a salt, the structure may show the parent alone. Where a SMILES comes first, the peptide text is derived from it. Bridges are numbered along the chain shown (N, C = ends). [ ]: non-standard residue; d: D form. The star is where a group is joined. X1 = CC[C@H](C)CCCCC(=O)*; Dab = NCC[C@H](N)C(=O)O

Conditions: IV PMB alone to treat CRGNB pneumonia

Question: With `CC[C@H](C)CCCCC(=O)N[C@@H](CCN)C(=O)N[C@H](C(=O)N[C@@H](CCN)C(=O)N[C@H]1CCNC(=O)[C@H]([C@@H](C)O)NC(=O)[C@H](CCN)NC(=O)[C@H](CCN)NC(=O)[C@H](CC(C)C)NC(=O)[C@@H](Cc2ccccc2)NC(=O)[C@H](CCN)NC1=O)[C@@H](C)O` [PMB, polymyxin B sulfate] (X1-[Dab]T[Dab][Dab][Dab][dF]L[Dab][Dab]T; lactam 4-C) as the molecule, how does the “drug concentrations in ELF compared with those in plasma” value read?
Answer: The value was “significantly lower”.
